Each block holds one molecule with its values, some of them ahead of it.
Columns and labels:
[1] = system: cerebral ischemia model induced by bilateral common carotid artery occlusion; experiment: Brain ischemia model, TTC staining of brain sections; format: in vivo, Wistar rats; details: rats, 1 mg/kg (calculated as ibuprofen) tail vein, 30 min before 1.5 h ligation
[2] = Metabolic stability in mice brain homogenate; format: in vitro ADME; details: 37 °C
Procedure: (§1) The preliminary metabolic stability of prodrugs was studied by incubating in plasma and brain homogenate, respectively. 1 ml of the prodrugs methanol solution (250 μM) was added into 4 ml plasma or brain homogenate. Then, the entire system was kept at 37 ± 0.5 °C with continuous shaking at 100 rpm/min. 200 μl samples were taken at the following time points: 0, 0.5, 1, 2, 3, 6, 12, and 24 h, and then replaced by plasma or brain homogenate. The internal standard (naproxen, 10 μl, 30 μg/ml) was added to each sample followed by 200 μl acetonitrile.
(§2) The metabolic stability of the prodrugs was studied in the mice plasma and brain homogenate at 37 °C. The Kdisapp and t1/2 of the prodrugs in plasma and brain homogenate were calculated by linear regression of the peak area against time (Table 2).

[3] = In vitro chemical stability in phosphate buffers; format: physicochemical; details: 37 °C
Procedure: The in vitro chemical stability of prodrugs was investigated by incubating the prodrugs in pH 2.5, 5.0, 7.4 and 8.0 phosphate buffers, respectively. Briefly, 1 ml of the prodrugs methanol solution (250 μg/ml) was added into 4 ml different buffer separately. The entire system was kept at 37 ± 0.5 °C with continuous shaking at 100 rpm/min. 200 μl medium samples were taken at the following time points: 0, 0.5, 1, 2, 3, 6, 12, and 24 h, and then replaced by fresh medium. The samples were analyzed by HPLC (Shimadzu). The analysis was accomplished on a SinoChrom ODS-C18 column (Dalian, China) (200 × 4.6 mm, […]), thermostated at 35 °C. The mobile phase was composed of methanol/water (73:27), and the pH was adjusted to 2.86 with 10% phosphoric acid. The UV […] was 225 nm and the flow rate was set at 1.0 ml/min with a 20 μl injection volume.
These solutions were maintained at 37 °C, and the aliquots were withdrawn in predetermined time intervals, then the concentrations of the prodrugs were determined by HPLC method.

PC12 cells [4] = experiment: Neuroprotective effect against H2O2-induced cytotoxicity, MTT cell viability; format: cell-based; details: Rattus norvegicus, PC-12, 10 μM pretreatment 4 h, then H2O2 (1 μM) 2 h, read-out: Cell viability (survival rate compared to control)
Procedure: (§3) The in vitro neurotoxicity model was established using H2O2 to induce oxidative stress and injury in PC12 cells.
Briefly, PC12 cells were seeded in 96-well plates at the density of 6 × 10^4 cell/well and incubated at 37 °C for 24 h. […] After the treatment, the cells were observed under inverted phase contrast microscopy and cell images were recorded. Subsequently, the cells viability was assessed by MTT assay using a microplate reader.

[5] = system: cerebral ischemia model induced by bilateral common carotid artery occlusion; experiment: Brain ischemia model, SOD, MDA and GSH in brain homogenate; format: in vivo, Wistar rats; details: rat brain homogenate, 1 mg/kg (calculated as ibuprofen) tail vein; for MDA level: relative to sham group
PC12 cells [6] = experiment: SOD activity after H2O2 in vitro (colorimetry kit); format: cell-based; details: 10 μM pretreatment 4 h, then H2O2 (1 μM) 2 h
Procedure: as §3
The ROS assay kit (S0033; Beyotime Institute of Biotechnology, Jiangsu, China) in DCFH-DA method was used to determine the intracellular ROS generation. PC12 cells were seeded in six-well plates at a density of 5 × 10^5 cells/well and incubated at 37 °C for 24 h. […] Then trypsin–EDTA was used to harvest the cells, which were washed three times with PBS afterward, and finally stained with 2′,7′-dichlorofluorescein diacetate (DCFH-DA, 10 μM) and incubated for 20 min at 37 °C in the dark. After centrifugation (2000 rpm, 3 min), the cell pellet was washed three times with PBS, resuspended in PBS before flow cytometer analysis (Ex 488 nm and Em 525 nm). SOD is an index of superoxide level which neutralizes free oxygen radicals, usually being tested along with ROS level showing oxidative stress. In brief, after harvesting, the cells were resuspended in PBS and lysed by Ultrasonic cell grinder (SCIENTZ-II D, Zhejiang, China) to obtain the cell lysis solution. Then, the SOD activity was evaluated using colorimetry kits (A001; Nanjing Jiancheng Bioengineering Institute, Nanjing, China). Untreated cells were used as the control.

[7] = Metabolic stability in mice plasma; format: in vitro ADME; details: 37 °C
Procedure: as §1, §2

[8] = Distribution in brain in mice, brain homogenate; format: in vivo, Kunming mice; details: for AUC(0–t): brain homogenate, ibuprofen after hydrolysis of sample, 10 mg/kg (calculated as ibuprofen) tail vein
Procedure: Kunming mice weighing 20–22 g were purchased from DOSSY Experimental Animal Center of Chengdu (Sichuan, China). All animal procedures for this study were approved by the Experiment Animal Administrative Committee of Sichuan University (P.R. China).
At appropriate time interval (5, 10, 15, 30, 45, 60, 90, 120, 240 and 480 min), blood was collected from the eye socket of mouse into a tube containing heparin, and centrifuged at 5000 rpm for 5 min. The supernatant was collected as plasma sample. The animals were killed by cervical dislocation, and the brain tissue was removed, and then washed with saline for three times to remove the remained blood and rolled over on the filter paper to remove the main vessel. All the brain tissues were homogenized with twice amount of saline. An aliquot of 10 μl of internal standard (naproxen, 30 μg/ml) was added into 200 μl plasma or 200 μl brain homogenate, the mixture was vortexed with 200 μl methanol for 5 min. Then, an aliquot of 50 μl of 6 M NaOH aqueous solution was added to the spiking mixture. […] Followed by vortexing for 5 min, 0.6 ml acetonitrile was added and the mixture was centrifuged at 15,000 rpm for 10 min. The separated supernatant was evaporated to dryness at 40 °C under air flow. The residues were redissolved in 50 μl methanol and centrifuged at 15,000 rpm for 10 min, and then 20 μl of the supernatant was injected into the HPLC system for analysis.
The area under the curve (AUC0–t) and the maximal concentration (Cmax) were calculated by Data and Statistics (DAS, Shanghai, China). The statistical analysis of the samples was performed by using a Student’s t-test with p values < .05 as the minimal level of significance. The relative uptake efficiency (RE) and concentration efficiency (CE) were calculated to evaluate the brain-targeting property of prodrugs. The values of REbrain and CEbrain are defined as follows: RE = (AUC 0) Pro/(AUC 0) Ibu, CE=(Cmax)Pro/(Cmax)Ibu.

[9] = Kunming, mouse, iv, brain, analyte intact prodrug, before hydrolysis, 10 mg/kg tail vein
[10] = brain, analyte ibuprofen (dosed or released), before hydrolysis, 10 mg/kg tail vein

Kdisapp [2]: 0.000542 s⁻¹
half-life at 50 μM ([2]; mouse): 0.355 h
Kdisapp ([3]; pH 2.5 phosphate buffer): 1.07e-05 s⁻¹
half-life at 50 μg/ml ([3]; pH 2.5 phosphate buffer): 18.1 h
Kdisapp ([3]; pH 5.0 phosphate buffer): 3.86e-06 s⁻¹
half-life at 50 μg/ml ([3]; pH 5.0 phosphate buffer): 49.9 h
Kdisapp ([3]; pH 7.4 phosphate buffer): 1.5e-05 s⁻¹
half-life at 50 μg/ml ([3]; pH 7.4 phosphate buffer): 12.8 h
Kdisapp ([3]; pH 8.0 phosphate buffer): 1.74e-05 s⁻¹
half-life at 50 μg/ml ([3]; pH 8.0 phosphate buffer): 11.1 h
Kdisapp [7]: 0.000187 s⁻¹
half-life at 50 μM ([7]; mouse): 1.03 h
Cmax [8, 9]: 26400 ± 1970 ng/g
MRT [8, 9]: 2.73 h
Tmax [8, 9]: 0.25 h
AUC(0–t) [8]: 7308.11 ± 447.86 µg·min/g
AUC(0-t) [8, 10]: 3393.98 ± 257.39 µg·min/g
AUC(0-t) ([8]; brain, analyte intact prodrug, before hydrolysis, 10 mg/kg tail vein): 3459.18 ± 223.76 µg·min/g
SMILES: CC(C)Cc1ccc(C(C)C(=O)OC(COC(=O)CCC(=O)OCC2OC(O)C(O)C(O)C2O)C2OC(=O)C(O)=C2O)cc1 (centres unmarked) [Glu-Vc-Ibu]
TTC red-staining rate compared with the sham group [1]: 87.95%
viability at 10 µM (PC12 cells [4]): 89.9%
SOD activity [5]: significant raise compared with saline group or ibuprofen group
MDA level [5]: 110.96%
SOD activity (PC12 cells [6]): markedly relieved the damage compared with others

AUC(0–t) [8]: 2782.42 ± 176.55 µg·min/g
AUC(0-t) [8, 10]: 2782.42 ± 176.55 µg·min/g
SMILES: CC(C)Cc1ccc(C(C)C(=O)O)cc1 (centres unmarked) [Ibuprofen, reference compound]
TTC red-staining rate compared with the sham group [1]: 48.09%
viability at 10 µM (PC12 cells [4]): 74.1%
SOD activity [5]: did not obviously reverse the decrease of SOD activity
MDA level [5]: 192.42%
